One block for each compound: values may come before it. Activity calls are given as the source filed them. The rule behind the calls is not given here.
Columns and labels:
[1] = target: T1, Cyclin-dependent kinase 7 (Homo sapiens, UniProt P50613); experiment: (§1) In vitro pharmacodynamics: p-RNA pol II Ser-5 (wtCDK7) ( QuantiGene Plex Gene Expression Assay: downregulation at the messenger level of superenhancer driven genes. The level of phosphorylation of Serine 5 on RNA pol II Vs totalRNA pol II is determined. The level of p-RNA pol II Ser-5 detected and stained with primary (a specific rabbit Phospho-Rpb1 CTD (Ser5) antibody) and secondary antibodies (a goat anti rabbit Alexa Fluor 488 conjugated secondary antibody) after 3 hrs incubation with probe.); format: functional
T1 sequence (P50613 whole entry): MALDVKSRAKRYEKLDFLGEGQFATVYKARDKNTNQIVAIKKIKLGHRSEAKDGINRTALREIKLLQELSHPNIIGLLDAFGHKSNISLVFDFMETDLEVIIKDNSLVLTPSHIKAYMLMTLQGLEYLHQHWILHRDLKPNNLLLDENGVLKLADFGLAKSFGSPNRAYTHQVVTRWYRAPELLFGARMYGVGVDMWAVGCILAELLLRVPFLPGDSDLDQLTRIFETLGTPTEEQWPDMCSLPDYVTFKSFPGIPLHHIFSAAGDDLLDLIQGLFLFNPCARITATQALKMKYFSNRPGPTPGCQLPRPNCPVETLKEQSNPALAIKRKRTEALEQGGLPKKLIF

[2] = target: Cyclin-dependent kinase 7 (Homo sapiens, UniProt P50613, C312S); experiment: as §1, with “(CDK7 C312S)” for “(wtCDK7)”; format: functional
Chain of Cyclin-dependent kinase 7 (Homo sapiens, UniProt P50613, C312S) (P50613 2-346 C312S limits assumed): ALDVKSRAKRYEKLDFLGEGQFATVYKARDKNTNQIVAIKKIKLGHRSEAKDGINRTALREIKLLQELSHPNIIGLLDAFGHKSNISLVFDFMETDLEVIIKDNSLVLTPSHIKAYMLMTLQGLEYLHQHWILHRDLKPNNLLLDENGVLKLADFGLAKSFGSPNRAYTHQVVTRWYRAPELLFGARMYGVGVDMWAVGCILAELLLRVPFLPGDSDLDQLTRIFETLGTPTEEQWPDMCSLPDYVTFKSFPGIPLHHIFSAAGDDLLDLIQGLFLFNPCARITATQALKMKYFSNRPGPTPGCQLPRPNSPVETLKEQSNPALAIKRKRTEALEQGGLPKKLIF

[3] = target: T1, Cyclin-dependent kinase 7; experiment: Fluorescent end-point assay ( KM ATP app ~30 µM); format: functional
[4] = target: Cyclin-dependent kinase 11B (Homo sapiens) (UniProt P21127); experiment: % inhibition of CDK11b in the DiscoverX Kinase panel at 1.0 µM; conditions: Compound concentration 1.0 uM
Chain of Cyclin-dependent kinase 11B (Homo sapiens) (P21127 whole entry): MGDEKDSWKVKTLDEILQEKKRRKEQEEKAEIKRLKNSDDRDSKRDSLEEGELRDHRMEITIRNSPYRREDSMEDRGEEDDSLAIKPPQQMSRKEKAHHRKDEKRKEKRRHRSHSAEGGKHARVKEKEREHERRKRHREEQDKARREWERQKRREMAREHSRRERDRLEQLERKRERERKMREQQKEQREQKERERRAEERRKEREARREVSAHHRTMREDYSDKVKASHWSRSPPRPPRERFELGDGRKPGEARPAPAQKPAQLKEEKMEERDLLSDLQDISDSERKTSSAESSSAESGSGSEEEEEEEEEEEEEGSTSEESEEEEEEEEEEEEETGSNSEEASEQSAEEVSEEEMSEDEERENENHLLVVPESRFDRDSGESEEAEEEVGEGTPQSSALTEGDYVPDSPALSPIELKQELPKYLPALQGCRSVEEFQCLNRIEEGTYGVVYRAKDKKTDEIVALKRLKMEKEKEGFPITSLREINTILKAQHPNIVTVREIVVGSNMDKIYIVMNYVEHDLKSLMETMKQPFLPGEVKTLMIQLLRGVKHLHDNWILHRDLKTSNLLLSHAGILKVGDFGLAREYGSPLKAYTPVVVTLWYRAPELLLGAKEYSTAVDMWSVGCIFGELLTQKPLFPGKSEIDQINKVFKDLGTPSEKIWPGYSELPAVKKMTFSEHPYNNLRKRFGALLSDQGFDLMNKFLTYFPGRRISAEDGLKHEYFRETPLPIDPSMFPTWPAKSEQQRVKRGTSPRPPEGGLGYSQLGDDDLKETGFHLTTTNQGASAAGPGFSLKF

[5] = target: Calcium/calmodulin-dependent protein kinase kinase 2 (Homo sapiens) (UniProt Q96RR4); experiment: Inhibition of CAMKK2 at 1.0 µM in the ActivX; conditions: Compound concentration 1.0 uM
[6] = target: Cyclin-dependent kinase 2 (Homo sapiens) (UniProt P24941); experiment: % inhibition of CDK2 in the DiscoverX Kinase panel at 1.0 µM; conditions: Compound concentration 1.0 uM
[7] = target: Serine/threonine-protein kinase 16 (Homo sapiens) (UniProt O75716); experiment: Inhibition of MPSK1 at 1.0 µM in the ActivX; conditions: Compound concentration 1.0 uM
[8] = target: T2, Cyclin-dependent kinase 11A/B (Homo sapiens) (UniProt Q9UQ88+P21127); experiment: Inhibition of CDK11 at 1.0 µM in the ActivX; format: protein assay; conditions: Compound concentration 1.0 uM
T2 sequence (P21127 whole entry, looked up): as the sequence (P21127 whole entry) above
T2 sequence (Q9UQ88 whole entry, looked up): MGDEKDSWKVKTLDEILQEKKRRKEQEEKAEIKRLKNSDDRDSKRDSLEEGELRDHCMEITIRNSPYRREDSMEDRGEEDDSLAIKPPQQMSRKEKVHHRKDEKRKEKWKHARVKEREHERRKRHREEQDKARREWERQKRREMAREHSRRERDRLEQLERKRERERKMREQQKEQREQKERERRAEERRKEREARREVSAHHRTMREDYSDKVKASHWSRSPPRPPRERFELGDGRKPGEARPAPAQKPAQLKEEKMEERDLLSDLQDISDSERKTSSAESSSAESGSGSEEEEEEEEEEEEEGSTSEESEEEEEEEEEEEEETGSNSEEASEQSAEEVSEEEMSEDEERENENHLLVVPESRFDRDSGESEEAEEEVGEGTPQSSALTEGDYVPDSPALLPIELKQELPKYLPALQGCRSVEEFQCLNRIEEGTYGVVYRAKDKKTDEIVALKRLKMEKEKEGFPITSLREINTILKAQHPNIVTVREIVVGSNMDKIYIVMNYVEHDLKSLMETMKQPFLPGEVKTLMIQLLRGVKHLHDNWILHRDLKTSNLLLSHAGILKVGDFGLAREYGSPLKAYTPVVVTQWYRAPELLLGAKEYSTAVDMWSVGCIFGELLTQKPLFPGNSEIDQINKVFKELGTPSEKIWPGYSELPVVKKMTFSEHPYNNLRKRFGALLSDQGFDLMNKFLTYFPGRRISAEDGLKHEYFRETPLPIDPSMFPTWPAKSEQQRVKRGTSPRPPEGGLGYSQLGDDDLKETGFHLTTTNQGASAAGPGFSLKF

[9] = target: Cyclin-dependent kinase 15 (Homo sapiens) (UniProt Q96Q40); experiment: % inhibition of CDK15 in the DiscoverX Kinase panel at 1.0 µM; conditions: Compound concentration 1.0 uM
Chain of Cyclin-dependent kinase 15 (Homo sapiens) (Q96Q40 whole entry): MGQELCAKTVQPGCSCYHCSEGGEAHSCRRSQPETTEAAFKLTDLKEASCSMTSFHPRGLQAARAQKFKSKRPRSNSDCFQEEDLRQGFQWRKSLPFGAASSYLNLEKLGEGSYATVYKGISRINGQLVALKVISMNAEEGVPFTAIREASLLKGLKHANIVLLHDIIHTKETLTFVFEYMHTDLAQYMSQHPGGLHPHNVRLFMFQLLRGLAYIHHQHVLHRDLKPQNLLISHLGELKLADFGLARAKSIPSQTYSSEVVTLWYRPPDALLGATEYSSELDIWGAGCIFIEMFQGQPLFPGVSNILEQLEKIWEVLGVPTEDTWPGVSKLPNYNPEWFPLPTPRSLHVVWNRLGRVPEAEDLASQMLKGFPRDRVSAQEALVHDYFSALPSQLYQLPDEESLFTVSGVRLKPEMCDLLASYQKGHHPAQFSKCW

[10] = target: Cyclin-dependent kinase 5 (Homo sapiens) (UniProt Q00535); experiment: % inhibition of CDK5 in the DiscoverX Kinase panel at 1.0 µM; conditions: Compound concentration 1.0 uM
Chain of Cyclin-dependent kinase 5 (Homo sapiens) (Q00535 whole entry, looked up): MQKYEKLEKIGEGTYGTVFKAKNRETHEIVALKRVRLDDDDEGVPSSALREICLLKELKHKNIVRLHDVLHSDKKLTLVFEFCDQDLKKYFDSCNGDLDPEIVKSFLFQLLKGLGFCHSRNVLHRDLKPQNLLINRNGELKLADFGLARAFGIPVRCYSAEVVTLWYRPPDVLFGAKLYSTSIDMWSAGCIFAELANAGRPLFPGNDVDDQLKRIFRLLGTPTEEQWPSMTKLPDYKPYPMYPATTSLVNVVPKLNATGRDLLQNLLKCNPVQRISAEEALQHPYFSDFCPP

[11] = target: Cyclin-dependent kinase 18 (Homo sapiens) (UniProt Q07002); experiment: % inhibition of CDK18 in the DiscoverX Kinase panel at 1.0 µM; conditions: Compound concentration 1.0 uM
Chain of Cyclin-dependent kinase 18 (Homo sapiens) (Q07002 whole entry): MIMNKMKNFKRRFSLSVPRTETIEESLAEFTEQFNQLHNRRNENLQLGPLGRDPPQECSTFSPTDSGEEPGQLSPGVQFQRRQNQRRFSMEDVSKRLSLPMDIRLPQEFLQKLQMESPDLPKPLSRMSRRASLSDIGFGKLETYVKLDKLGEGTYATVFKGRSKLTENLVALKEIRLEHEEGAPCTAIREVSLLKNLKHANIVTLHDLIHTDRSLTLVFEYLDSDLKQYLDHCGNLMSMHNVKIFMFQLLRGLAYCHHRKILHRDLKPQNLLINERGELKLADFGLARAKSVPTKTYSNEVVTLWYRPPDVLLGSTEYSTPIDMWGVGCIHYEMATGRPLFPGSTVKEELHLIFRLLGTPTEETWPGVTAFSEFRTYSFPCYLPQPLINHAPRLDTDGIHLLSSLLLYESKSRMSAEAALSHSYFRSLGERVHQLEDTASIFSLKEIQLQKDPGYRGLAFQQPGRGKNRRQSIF

[12] = target: Cyclin-dependent kinase 3 (Homo sapiens) (UniProt Q00526); experiment: % inhibition of CDK3 in the DiscoverX Kinase panel at 1.0 µM; conditions: Compound concentration 1.0 uM
[13] = target: Cyclin-dependent kinase 4 (Homo sapiens) (UniProt P11802); experiment: % inhibition of CDK4 in the DiscoverX Kinase panel at 1.0 µM; conditions: Compound concentration 1.0 uM
Chain of Cyclin-dependent kinase 4 (Homo sapiens) (P11802 whole entry): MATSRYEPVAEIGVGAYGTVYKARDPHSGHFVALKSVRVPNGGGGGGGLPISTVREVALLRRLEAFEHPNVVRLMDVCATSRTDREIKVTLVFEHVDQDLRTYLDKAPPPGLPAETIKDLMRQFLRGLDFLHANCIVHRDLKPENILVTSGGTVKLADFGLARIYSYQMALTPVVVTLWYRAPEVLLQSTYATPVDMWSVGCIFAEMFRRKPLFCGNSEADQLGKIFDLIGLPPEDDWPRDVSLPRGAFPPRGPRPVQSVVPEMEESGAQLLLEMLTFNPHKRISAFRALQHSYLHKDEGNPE

[14] = target: Cyclin-dependent kinase 6 (Homo sapiens) (UniProt Q00534); experiment: Inhibition of CDK6 at 1.0 µM in the ActivX; conditions: Compound concentration 1.0 uM
[15] = target: T1, Cyclin-dependent kinase 7; experiment: % inhibition of CDK7 in the DiscoverX Kinase panel at 1.0 µM
[16] = target: Cyclin-dependent kinase 14 (Homo sapiens) (UniProt O94921); experiment: Inhibition of CDK14 at 1.0 µM in the ActivX; conditions: Compound concentration 1.0 uM
[17] = target: Cyclin-dependent kinase 12 (Homo sapiens) (UniProt Q9NYV4); experiment: Inhibition of CDK12 at 1.0 µM in the ActivX; conditions: Compound concentration 1.0 uM
[18] = target: Cyclin-dependent kinase 8 (Homo sapiens) (UniProt P49336); experiment: % inhibition of CDK8 in the DiscoverX Kinase panel at 1.0 µM; conditions: Compound concentration 1.0 uM
[19] = target: Cyclin-dependent kinase 2 (Homo sapiens) (UniProt P24941); experiment: Inhibition of CDK2 at 1.0 µM in the ActivX; conditions: Compound concentration 1.0 uM
[20] = target: Cyclin-dependent kinase 15 (Homo sapiens) (UniProt Q96Q40); experiment: Inhibition of CDK15 at 1.0 µM in the ActivX; conditions: Compound concentration 1.0 uM
[21] = target: Cyclin-dependent kinase 18 (Homo sapiens) (UniProt Q07002); experiment: Inhibition of CDK18 at 1.0 µM in the ActivX; conditions: Compound concentration 1.0 uM
[22] = target: Cyclin-dependent kinase 17 (Homo sapiens) (UniProt Q00537); experiment: % inhibition of CDK17 in the DiscoverX Kinase panel at 1.0 µM; conditions: Compound concentration 1.0 uM
[23] = target: Cyclin-dependent kinase 16 (Homo sapiens) (UniProt Q00536); experiment: % inhibition of CDK16 in the DiscoverX Kinase panel at 1.0 µM; conditions: Compound concentration 1.0 uM
Chain of Cyclin-dependent kinase 16 (Homo sapiens) (Q00536 whole entry): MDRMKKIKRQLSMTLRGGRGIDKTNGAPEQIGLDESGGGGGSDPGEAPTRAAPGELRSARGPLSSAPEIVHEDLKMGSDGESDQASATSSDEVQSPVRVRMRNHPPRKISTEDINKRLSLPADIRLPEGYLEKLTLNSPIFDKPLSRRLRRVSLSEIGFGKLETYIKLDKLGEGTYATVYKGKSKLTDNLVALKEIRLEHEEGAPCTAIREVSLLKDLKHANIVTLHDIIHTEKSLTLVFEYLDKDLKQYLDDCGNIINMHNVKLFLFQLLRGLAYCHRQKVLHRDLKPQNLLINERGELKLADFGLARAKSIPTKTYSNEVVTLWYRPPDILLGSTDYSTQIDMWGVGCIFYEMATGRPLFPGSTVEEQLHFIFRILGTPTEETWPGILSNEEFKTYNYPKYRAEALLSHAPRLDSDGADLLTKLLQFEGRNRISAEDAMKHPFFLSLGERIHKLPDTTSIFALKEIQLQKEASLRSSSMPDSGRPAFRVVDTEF

[24] = target: T2, Cyclin-dependent kinase 11A/B (Homo sapiens); experiment: % inhibition of CDK11 in the DiscoverX Kinase panel at 1.0 µM; format: protein assay; conditions: Compound concentration 1.0 uM
[25] = target: T3, Cyclin-dependent kinase 9 (Homo sapiens, UniProt P50750); experiment: % inhibition of CDK9 in the DiscoverX Kinase panel at 1.0 µM
T3 sequence (P50750 whole entry): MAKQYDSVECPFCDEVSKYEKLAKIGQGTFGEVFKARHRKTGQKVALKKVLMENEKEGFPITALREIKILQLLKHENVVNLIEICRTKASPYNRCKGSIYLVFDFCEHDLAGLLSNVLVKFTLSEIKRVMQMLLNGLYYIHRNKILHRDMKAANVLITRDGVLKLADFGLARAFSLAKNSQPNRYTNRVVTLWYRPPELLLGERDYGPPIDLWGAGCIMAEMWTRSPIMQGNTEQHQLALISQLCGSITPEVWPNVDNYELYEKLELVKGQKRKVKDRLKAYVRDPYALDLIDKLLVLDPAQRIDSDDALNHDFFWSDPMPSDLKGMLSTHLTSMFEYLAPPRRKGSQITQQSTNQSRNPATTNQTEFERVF

[26] = target: Cyclin-dependent kinase 8 (Homo sapiens) (UniProt P49336); experiment: Inhibition of CDK8 at 1.0 µM in the ActivX; conditions: Compound concentration 1.0 uM
[27] = target: Cyclin-dependent kinase 1 (Homo sapiens) (UniProt P06493); experiment: Inhibition of CDK1 at 1.0 µM in the ActivX; conditions: Compound concentration 1.0 uM
[28] = target: Cyclin-dependent kinase 10 (Homo sapiens) (UniProt Q15131); experiment: Inhibition of CDK10 at 1.0 µM in the ActivX; conditions: Compound concentration 1.0 uM
[29] = target: Cyclin-dependent kinase 5 (Homo sapiens) (UniProt Q00535); experiment: Inhibition of CDK5 at 1.0 µM in the ActivX; conditions: Compound concentration 1.0 uM
[30] = target: Cyclin-dependent kinase 14 (Homo sapiens) (UniProt O94921); experiment: % inhibition of CDK14 in the DiscoverX Kinase panel at 1.0 µM; conditions: Compound concentration 1.0 uM
[31] = target: Cyclin-dependent kinase 17 (Homo sapiens) (UniProt Q00537); experiment: Inhibition of CDK17 at 1.0 µM in the ActivX; conditions: Compound concentration 1.0 uM
[32] = target: Cyclin-dependent kinase 4 (Homo sapiens) (UniProt P11802); experiment: Inhibition of CDK4 at 1.0 µM in the ActivX; conditions: Compound concentration 1.0 uM
[33] = target: Cyclin-dependent kinase 20 (Homo sapiens) (UniProt Q8IZL9); experiment: Inhibition of CDK20 at 1.0 µM in the ActivX; conditions: Compound concentration 1.0 uM
[34] = target: Cyclin-dependent kinase 13 (Homo sapiens) (UniProt Q14004); experiment: Inhibition of CDK13 at 1.0 µM in the ActivX; conditions: Compound concentration 1.0 uM
[35] = target: Cyclin-dependent kinase 13 (Homo sapiens) (UniProt Q14004); experiment: % inhibition of CDK13 in the DiscoverX Kinase panel at 1.0 µM; conditions: Compound concentration 1.0 uM
[36] = target: Cyclin-dependent kinase 16 (Homo sapiens) (UniProt Q00536); experiment: Inhibition of CDK16 at 1.0 µM in the ActivX; conditions: Compound concentration 1.0 uM
[37] = target: Cyclin-dependent kinase 11B (Homo sapiens) (UniProt P21127); experiment: Inhibition of CDK11b at 1.0 µM in the ActivX; conditions: Compound concentration 1.0 uM
[38] = target: T4, CDK7/Cyclin H/MNAT1 (Homo sapiens) (UniProt P51946+P50613+P51948); experiment: (§2) Biochemical CDK7 assay (KIapp) ( CDK7 catalyzed, ATP-dependent, phosphorylation of a peptide substrate derived from RNA Pol II (CDK7/9-tide). Coupled via lactate dehydrogenase (LDH) and pyruvate kinase (PK) to lactate and NAD+ production, with concomitant depletion of NADH. Continuous coupled assay measures CDK7 catalytic activity through the diminished absorbance intensity at 340 nm that corresponds with NADH depletion.); format: functional
[39] = target: T1, Cyclin-dependent kinase 7; experiment: Inhibition of CDK7 at 1.0 µM in the ActivX; conditions: Compound concentration 1.0 uM
[40] = target: T4, CDK7/Cyclin H/MNAT1 (Homo sapiens); experiment: as §2, with “(kinact/KIapp)” for “(KIapp)”; format: functional
[41] = target: T3, Cyclin-dependent kinase 9; experiment: Inhibition of CDK9 at 1.0 µM in the ActivX; conditions: Compound concentration 1.0 uM

IC50 [1]: > 10000 nM (not active)
IC50 [2]: > 10000 nM (not active)
IC50 [3]: ~200 nM (not active)
Compound: CC(=O)N1CC(N2CCC(c3cc(C)c4c(c3)Nc3ncnc(N5CCS(=O)(=O)CC5)c3[C@@H](C)O4)CC2)C1

inhibition [4]: 0%
inhibition [5]: 70%
inhibition [6]: 10%
inhibition [7]: 65%
inhibition [8]: 7%
IC50 [1]: 58 nM (active)
inhibition [9]: 21%
inhibition [10]: 5%
inhibition [11]: 25%
inhibition [12]: 14%
inhibition [13]: 10%
inhibition [14]: 0%
IC50 [15]: 3.8 nM
inhibition ([15]; Compound concentration 1.0 uM): 99%
inhibition [16]: 11%
inhibition [17]: 11%
inhibition [18]: > 2%
inhibition [19]: 6%
inhibition [20]: 15%
IC50 [2]: > 10000 nM (not active)
inhibition [21]: 19%
inhibition [22]: 2%
inhibition [23]: 5%
inhibition [24]: 11%
IC50 [25]: 933 nM
inhibition ([25]; Compound concentration 1.0 uM): 36%
inhibition [26]: 7%
inhibition [27]: 11%
inhibition [28]: 3%
inhibition [29]: 2%
inhibition [30]: 5%
inhibition [31]: 17%
inhibition [32]: 0%
inhibition [33]: 5%
inhibition [34]: 13%
inhibition [35]: 12%
inhibition [36]: 1%
inhibition [37]: 5%
KIapp [38]: 31 nM
inhibition [39]: 95%
kinact/KIapp [40]: 2600 M⁻¹ s⁻¹
inhibition [41]: 45%
Compound: CC#CC(=O)N1CC(N2CCC(c3cc(C)c4c(c3)Nc3ncnc(N5CCS(=O)(=O)CC5)c3[C@@H](C)O4)CC2)C1
